Tested on: HIV-1
Test: HIV infectivity assay (Table 2, strain not given)
Format: cell-based
Conditions: Human immunodeficiency virus 1, read-out: Activity Level
Description: (§1) Compounds were profiled against two HIV-1 viruses, the M-tropic (CCR5 utilizing) Ba-L strain and the T-tropic (CXCR4 utilizing) IIIB strain. Both viruses were propagated in human peripheral blood lymphocytes. Compounds were tested for there ability to block infection of the HOS cell line (expressing hCXCR4/hCCR5/hCD4/pHIV-LTR-luciferase) by either HIV-1 Ba-L or HIV-1, IIIB. Compound cytotoxicity was also examined in the absence of virus addition.
(§2) HOS cells (expressing hCXCR4/hCCR5/hCD4/pHIV-LTR-luciferase) were harvested and diluted in Dulbeccos modified Eagles media supplemented with 2% FCS and non-essential amino acid to a concentration of 60,000 cells/ml. The cells were plated into 96-well plates (100 ul per well) and the plates were placed in a tissue culture incubator (37° C.; 5% CO2/95% air) for a period of 24 h.
Subsequently, 50 ul of the desired drug solution (4 times the final concentration) was added to each well and the plates were returned to the tissue culture incubator (37° C.; 5% CO2/95% air) for 1 h. Following this incubation 50 ul of diluted virus was added to each well (approximately 2 million RLU per well of virus). The plates were returned to the tissue culture incubator (37° C.; 5% CO2/95% air) and were incubated for a further 96 h.
Following this incubation the endpoint for the virally infected cultures was quantified following addition of Steady-Glo Luciferase assay system reagent (Promega, Madison, Wis.). Cell viability or non-infected cultures was measured using a CellTiter-Glo luminescent cell viability assay system (Promega, Madison, Wis.). All luminescent readouts are performed on a Topcount luminescence detector (Packard, Meridien, Conn.).
as §1, with “Ba-L was” for “Both viruses were”, “either peripheral blood lymphocytes or SupT1/CCR5+/CXCR4+ cells. IIIB was propagated in” for “human”, “their” for “there”
as §2, with “FCS” for “FCS and non-essential amino acid”, “120,000” for “60,000”, “(50 μl” for “(100 ul”, “(370°” for “(37°”
Subsequently, 50 μl of the desired drug solution (2 times the final concentration) was added to each well and the plates were returned to the tissue culture incubator (370° C.; 5% CO2/95% air) for 1 h. Following this incubation, 60 μl of diluted virus (4 times the final concentration) was added to 60 μl of 2× the final desired concentration of the compound and 100 μl of this compound/virus mix was added to each well (approximately 2 million RLU per well of virus). The plates were returned to the tissue culture incubator (370° C.; 5% CO2/95% air) and were incubated for a further 96 h.

c1cnc2c(c1)CC[C@@H]1CCCN(Cc3nc4ccccc4n3CCCN3CCOCC3)[C@H]21 (racemic) [Example 44, (cis) 1-({1-[3-(4-morpholinyl)propyl]-1H-benzimidazol-2-yl}methyl)-1,2,3,4,4a,5,6,10b-octahydro-1,10-phenanthroline]
IC50: 100 to 500 nM

c1cnc2c(c1)CC[C@@H]1CCCN(Cc3cn4c(N5CCC(N6CCCCC6)CC5)cccc4n3)[C@H]21 [Example 71, (4aR,10bS)-1-{[5-(1,4′-bipiperidin-1′-yl)imidazo[1,2-a]pyridin-2-yl]methyl}-1,2,3,4,4a,5,6,10b-octahydro-1,10-phenanthroline]
IC50: < 100 nM

CCN(CC)Cc1c(CN2CCC[C@H]3CCc4cccnc4[C@H]32)nc2cccc(N3CCN(C)CC3)n12 [Example 55, N-ethyl-N-{[2-[(4aR,10bS)-3,4,4a,5,6,10b-hexahydro-1,10-phenanthrolin-1(2H)-ylmethyl]-5-(4-methyl-1-piperazinyl)imidazo[1,2-a]pyridin-3-yl]methyl}ethanamine]
IC50: < 100 nM

c1cnc2c(c1)CC[C@@H]1CCCN(Cc3cn4c(N5CCC(N6CCCC6)CC5)cccc4n3)[C@H]21 [Example 72, (4aR,10bS)-1-({5-[4-(1-pyrrolidinyl)-1-piperidinyl]imidazo[1,2-a]pyridin-2-yl}methyl)-1,2,3,4,4a,5,6,10b-octahydro-1,10-phenanthroline]
IC50: < 100 nM

CN1CCCN(c2cccc3nc(CN4CCC[C@H]5CCc6cccnc6[C@H]54)cn23)CC1 [Example 93, (4aR,10bS)-1-{[5-(4-methylhexahydro-1H-1,4-diazepin-1-yl)imidazo[1,2-a]pyridin-2-yl]methyl}-1,2,3,4,4a,5,6,10b-octahydro-1,10-phenanthroline]
IC50: < 100 nM

CCN1CCN(c2cccc3nc(CN4CCC[C@H]5CCc6cccnc6[C@H]54)cn23)CC1 [Example 73, (4aR,10bS)-1-{[5-(4-ethyl-1-piperazinyl)imidazo[1,2-a]pyridin-2-yl]methyl}-1,2,3,4,4a,5,6,10b-octahydro-1,10-phenanthroline]
IC50: < 100 nM

CN(C)CCCn1c(CN2CC[C@@H]3CCc4cccnc4[C@H]32)nc2ccccc21 (racemic) [Example 132, (trans) 3-[2-(2,3,3a,4,5,9b-hexahydro-1H-pyrrolo[3,2-h]quinolin-1-ylmethyl)-1H-benzimidazol-1-yl]-N,N-dimethyl-1-propanamine]
IC50: 100 to 500 nM

CN(C)C1CN(c2cccc3nc(CN4CCC[C@H]5CCc6cccnc6[C@H]54)cn23)C1 [Example 98, 1-{2-[(4aR,10bS)-3,4,4a,5,6,10b-hexahydro-1,10-phenanthrolin-1(2H)-ylmethyl]imidazo[1,2-a]pyridin-5-yl}-N,N-dimethyl-3-azetidinamine]
IC50: 100 to 500 nM

OC1CCN(c2cccc3nc(CN4CCC[C@H]5CCc6cccnc6[C@H]54)cn23)CC1 [Example 69, 1-{2-[(4aR,10bS)-3,4,4a,5,6,10b-hexahydro-1,10-phenanthrolin-1(2H)-ylmethyl]imidazo[1,2-a]pyridin-5-yl}-4-piperidinol]
IC50: 100 to 500 nM

CN1CCC(Nc2cccc3nc(CN4CCC[C@H]5CCc6cccnc6[C@H]54)cn23)CC1 [Example 68, 2-[(4aR,10bS)-3,4,4a,5,6,10b-hexahydro-1,10-phenanthrolin-1(2H)-ylmethyl]-N-(1-methyl-4-piperidinyl)imidazo[1,2-a]pyridin-5-amine]
IC50: < 100 nM

CN1CCN(Cc2c(CN3CCC[C@H]4CCc5cccnc5[C@H]43)nc3cccc(N4CCN(C)CC4)n23)CC1 [Example 56, (4aR,10bS)-1-({5-(4-methyl-1-piperazinyl)-3-[(4-methyl-1-piperazinyl)methyl]imidazo[1,2-a]pyridin-2-yl}methyl)-1,2,3,4,4a,5,6,10b-octahydro-1,10-phenanthroline]
IC50: < 100 nM

From patent US20090093454A1, “Chemical Compounds” (priority 2005, published 2009)
